Test results: ChEMBL document CHEMBL4828769, “Discovery of AS-0141, a Potent and Selective Inhibitor of CDC7 Kinase for the Treatment of Solid Cancers” (J Med Chem, 2021)

Assays:
[1] = Metabolic stability in mouse liver microsomes assessed as parent compound remaining after 30 mins; format: ADME, Microsome; settings: liver microsomes, read-out: Stability
[2] = molecular target: T1, Serine/threonine-protein kinase pim-1 (Homo sapiens, UniProt P11309); experiment: Inhibition of PIM1 (unknown origin) at 0.1 uM in presence of 1 mM ATP relative to control
Target sequence in this assay (P11309 whole entry, looked up): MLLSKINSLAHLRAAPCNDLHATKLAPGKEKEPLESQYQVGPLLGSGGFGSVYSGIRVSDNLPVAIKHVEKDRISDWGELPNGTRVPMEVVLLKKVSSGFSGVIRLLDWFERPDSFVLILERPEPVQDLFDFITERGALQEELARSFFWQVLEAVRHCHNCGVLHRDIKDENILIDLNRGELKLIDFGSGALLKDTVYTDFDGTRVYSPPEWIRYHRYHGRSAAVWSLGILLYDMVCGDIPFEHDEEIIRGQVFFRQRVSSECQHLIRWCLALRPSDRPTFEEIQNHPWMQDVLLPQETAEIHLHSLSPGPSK

[3] = molecular target: Dual specificity protein kinase CLK1 (Homo sapiens, UniProt P49759); experiment: Inhibition of CLK1 (unknown origin) at 0.1 uM in presence of 1 mM ATP relative to control
[4] = organism: Homo sapiens; experiment: Selectivity index, ratio of IC50 for inhibition of human CDC7 in presence of 1 mM ATP without preincubation to IC50 for inhibition of human CDC7 using FITC-labelled MCM2 substrate preincubated for 30 mins followed by substrate addition and measured after 5 hrs in presence of 1 mM ATP
[5] = molecular target: T1, Serine/threonine-protein kinase pim-1; experiment: Inhibition of PIM1 (unknown origin) in presence of 1 mM ATP with preincubation
Target sequence in this assay (P11309 whole entry): as the sequence (P11309 whole entry, looked up) above

[6] = molecular target: T2, Dual specificity protein kinase CLK2 (Homo sapiens, UniProt P49760); experiment: Inhibition of CLK2 (unknown origin) in presence of 1 mM ATP without preincubation
[7] = molecular target: T2, Dual specificity protein kinase CLK2; experiment: Inhibition of CLK2 (unknown origin) in presence of 1 mM ATP with preincubation
[8] = molecular target: Glycogen synthase kinase-3 alpha (Homo sapiens, UniProt P49840); experiment: Inhibition of GSK3alpha (unknown origin) in presence of 1 mM ATP without preincubation
[9] = organism: Homo sapiens; experiment: Selectivity index, ratio of IC50 for GSK3alpha (unknown origin) in presence of 1 mM ATP without preincubation to IC50 for GSK3alpha (unknown origin) in presence of 1 mM ATP with preincubation
[10] = molecular target: Cell division cycle 7-related protein kinase (Homo sapiens, UniProt O00311); experiment: Inhibition of CDC7 in human SW-620 cells assessed as reduction in phosphorylation of MCM2 at Ser53 residue incubated for 48 hrs by Western blot analysis; format: cell-based
[11] = tested on: SW-620; experiment: Induction of apoptosis in human SW-620 cells assessed as increase in cleaved caspase 3 level incubated for 48 hrs by Western blot analysis; format: functional, cell-based; settings: dose 0.03-1 µM
[12] = tested on: SW-620; experiment: Induction of apoptosis in human SW-620 cells assessed as increase in gamma-H2AX level incubated for 48 hrs by Western blot analysis; format: functional, cell-based; settings: dose 0.03-1 µM
[13] = Half life in mouse at 1 mg/kg, iv; format: ADME, organism-based; settings: in vivo
[14] = Half life in mouse at 10 mg/kg, po; format: ADME, organism-based; settings: in vivo
[15] = Half life in dog at 1 mg/kg, iv; format: ADME, organism-based, Canis lupus familiaris; settings: in vivo
[16] = Tmax in mouse at 10 mg/kg, po; format: ADME, organism-based; settings: in vivo
[17] = AUC(0 to infinity) in rat at 2 mg/kg, iv; format: ADME, organism-based; parameters: route intravenous, time infinity, dose 2 mg/kg; settings: in vivo
[18] = AUC(0 to infinity) in rat at 10 mg/kg, po; format: ADME, organism-based; parameters: time infinity, route oral, dose 10 mg/kg; settings: in vivo
[19] = AUC(0 to infinity) in dog at 2 mg/kg, po; format: ADME, organism-based, Canis lupus familiaris; parameters: route oral, time infinity, dose 2 mg/kg; settings: in vivo
[20] = Volume of distribution in mouse at 1 mg/kg, iv; format: ADME, organism-based; settings: in vivo
[21] = Volume of distribution in rat at 2 mg/kg, iv; format: ADME, organism-based; settings: in vivo
[22] = Clearance in dog at 1 mg/kg, iv; format: ADME, organism-based, Canis lupus familiaris; settings: in vivo
[23] = MRT in mouse at 1 mg/kg, iv; format: ADME, organism-based; settings: in vivo
[24] = Oral bioavailability in dog at 2 mg/kg; format: ADME, organism-based, Canis lupus familiaris; settings: in vivo

T2 sequence (P49760 whole entry): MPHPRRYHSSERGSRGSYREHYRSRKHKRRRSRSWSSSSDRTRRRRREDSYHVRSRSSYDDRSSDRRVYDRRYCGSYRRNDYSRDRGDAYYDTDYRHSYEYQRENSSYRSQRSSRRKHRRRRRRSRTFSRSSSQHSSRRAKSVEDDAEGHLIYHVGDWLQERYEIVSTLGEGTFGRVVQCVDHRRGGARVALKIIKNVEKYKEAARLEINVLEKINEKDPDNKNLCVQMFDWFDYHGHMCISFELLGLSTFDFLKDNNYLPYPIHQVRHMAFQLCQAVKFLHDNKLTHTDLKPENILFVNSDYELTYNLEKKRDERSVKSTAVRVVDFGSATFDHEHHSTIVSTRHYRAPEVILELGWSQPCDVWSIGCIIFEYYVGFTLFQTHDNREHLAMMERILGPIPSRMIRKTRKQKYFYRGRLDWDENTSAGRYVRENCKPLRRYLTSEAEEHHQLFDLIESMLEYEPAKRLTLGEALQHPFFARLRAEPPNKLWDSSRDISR
Chain of Dual specificity protein kinase CLK1 (P49759 whole entry, looked up): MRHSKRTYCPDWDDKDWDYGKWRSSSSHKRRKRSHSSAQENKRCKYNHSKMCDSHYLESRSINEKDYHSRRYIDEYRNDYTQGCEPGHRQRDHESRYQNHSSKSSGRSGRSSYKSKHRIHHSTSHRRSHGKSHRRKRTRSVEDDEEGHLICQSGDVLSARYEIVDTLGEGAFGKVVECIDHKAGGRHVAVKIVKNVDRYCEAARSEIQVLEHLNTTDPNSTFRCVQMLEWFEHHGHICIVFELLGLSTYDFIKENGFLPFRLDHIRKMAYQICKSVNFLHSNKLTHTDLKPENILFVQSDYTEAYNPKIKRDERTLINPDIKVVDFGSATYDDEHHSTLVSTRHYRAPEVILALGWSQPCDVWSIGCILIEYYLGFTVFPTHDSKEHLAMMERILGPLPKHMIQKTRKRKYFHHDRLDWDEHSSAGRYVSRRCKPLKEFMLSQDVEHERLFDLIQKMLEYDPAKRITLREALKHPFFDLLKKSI
Chain of Glycogen synthase kinase-3 alpha (P49840 whole entry): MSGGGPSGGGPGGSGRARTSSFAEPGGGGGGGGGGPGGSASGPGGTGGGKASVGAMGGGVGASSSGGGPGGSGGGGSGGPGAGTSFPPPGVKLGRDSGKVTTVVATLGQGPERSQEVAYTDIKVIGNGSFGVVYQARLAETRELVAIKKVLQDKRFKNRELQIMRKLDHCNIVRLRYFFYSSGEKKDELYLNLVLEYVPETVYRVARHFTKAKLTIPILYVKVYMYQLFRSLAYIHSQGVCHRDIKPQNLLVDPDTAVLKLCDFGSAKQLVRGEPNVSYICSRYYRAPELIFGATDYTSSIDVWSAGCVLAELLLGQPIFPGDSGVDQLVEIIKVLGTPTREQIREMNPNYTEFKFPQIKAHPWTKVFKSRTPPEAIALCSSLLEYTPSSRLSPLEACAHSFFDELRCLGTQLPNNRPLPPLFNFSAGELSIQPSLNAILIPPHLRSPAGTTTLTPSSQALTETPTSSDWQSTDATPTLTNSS

CCOC(=O)C1=C(NN2CCN(CC(F)(F)F)CC2)O/C(=C\c2c[nH]c3ncccc23)C1=O [MONZOSERTIB]
remaining at 0.5 h [1]: 18.7%
inhibition [2]: > 30%
inhibition [3]: > 30%
Ratio IC50 [4]: 210
IC50 [5]: 34 nM
IC50 [6]: 270 nM
IC50 [7]: 227 nM
IC50 [8]: 189 nM
Ratio IC50 [9]: 0.8
IC50 [10]: 53 nM
inhibition ([10]; dose 0.03-1 µM): Dose-Dependent Effect
Activity [11]: Dose-Dependent Effect
Activity [12]: Dose-Dependent Effect
half-life [13]: 19.2 min
half-life [14]: 87 min
half-life [15]: 288 min
Tmax [16]: 4.98 min
AUC(0-inf) [17]: 887 ng·h/mL
AUC(0-inf) [18]: 2410 ng·h/mL
AUC(0-inf) [19]: 834 ng·h/mL
Vd [20]: 3.1 L/kg
Vd [21]: 3.24 L/kg
clearance [22]: 13.5 mL/min/kg
MRT [23]: 18 min
bioavailability [24]: 33.3%
